Laboratory results reported in paper PMC6108835, “Target-Based Discovery of an Inhibitor of the Regulatory Phosphatase PPP1R15B” (Cell, 2018).

Columns and labels:
HD^82Q mice = test: Treatment of HD^82Q (N171-82Q) mice, model of Huntington's disease; format: in vivo, mouse
Method: To produce an experimental group, HD^82Q transgenic males were crossed with C3H/B6 F1 wild-type females. 4 weeks old treatment- and test-naive transgenic mice and their wild-type littermate controls were randomized in different groups and treated with Raphin1 for the indicated time. Only males HD^82Q were used. Mice weight was collected weekly or bi-weekly.
Mice were culled by cervical dislocation, a part of cortex was extracted, fresh-frozen in liquid nitrogen and kept at −80°C until use. Tissue was homogenized and lysed in Laemmli Buffer (1 mL for 0.5 mg tissue). Lysates were boiled at 95°C for 5 min, sonicated and resolved on Bolt SDS-PAGE 4%–12% Bis-Tris gels (ThermoFisher Scientific). Proteins were transferred to the nitrocellulose membrane (Bio-Rad). Membrane was blocked in 5% skimmed milk for 30 min and then probed with primary antibodies followed by incubation with the appropriate horseradish peroxidase-conjugated secondary antibodies (Promega). Proteins were visualized using ECL Prime (GE Healthcare) and imaged in the Chemi-Smart 5000 (Vilber-Lourmat, France). SDS-resistant huntingtin assemblies were quantified using ImageJ (NIH, USA). The huntingtin assemblies were analyzed using the huntingtin 2B4 antibody (Euromedex (#HU-2B4), 1:1,000).
Mice were culled by cervical dislocation, a brain was fresh frozen in the O.C.T. compound (VWR International) and sectioned (14 μm) using Cryostat (Leica CM3050 S). […]
For quantification, motor cortex was imaged using a Nikon TiE automated fluorescence microscope under the control of NIS Elements software (Nikon UK). Images were taken using a 40X 0.95 NA lens, fluorescence filter sets matched to Hoechst 33342 and Alexa 488 and an Andor Neo sCMOS camera. […] Images were analyzed using the ‘general analysis’ tool in NIS Elements. […] The total number of nuclei per field and the total number of inclusions inside nuclei per field were counted in each filed. […] To check for systematic bias in our analysis due to variations in sample processing we also measured the average fluorescence intensity across the whole field. […]

[1] = Body weight gain of wild-type mice under chronic treatment; format: in vivo, mouse; conditions: various doses once a day (2 mg/kg for 10 weeks; 15 days at indicated doses)
Method: The acetate salts of Raphin1 or GBZ were dissolved in water and sonicated for 10 min. The solution was aliquoted and kept at −20°C until use. Once thawed a tube was kept at 4°C and used within 24 hr. The compounds were administered by oral gavage.
Raphin1 was administered at 2 mg/kg (unless otherwise specified). Mice received a single dose or were treated chronically – one time per day. Control mice were treated with vehicle (water) only.
Mice were weighted on a dedicated scale (A&D, FX3000iWP). 4 weeks old treatment and test naive C57BL/6J males and females (Figure 6B) and 2 months old treatment and test naive C3H/B6 males (Figure S6A) were used.

[2] = HD^82Q mice, 2 mg/kg daily from 4 weeks of age, 2-month-old

[H]/N=C(\N)NN=Cc1cccc(Cl)c1Cl [Raphin1, (E)-2-(2,3-dichlorobenzylidene)hydrazine-1-carboximidamide]
Weight of HD^82Q mice (HD^82Q mice; 2 mg/kg once a day by oral gavage from 4 to ∼10 weeks of age): improved
Nuclear huntingtin inclusions in the cortex (HD^82Q mice; [2]): decreased
SDS-insoluble huntingtin assemblies in cortex (HD^82Q mice; [2]): decreased
Adverse effects on weight gain [1]: no obvious adverse effects
